Experimental data as given in US10227323B2, “Glucosylceramide synthase inhibitors for the treatment of diseases” (BIOMARIN PHARMACEUTICAL INC., priority 2013, dated 2019).

Target: T1, GCS (Canis lupus familiaris, UniProt A0A8I3MXG6)
T1 sequence (A0A8I3MXG6 1-394): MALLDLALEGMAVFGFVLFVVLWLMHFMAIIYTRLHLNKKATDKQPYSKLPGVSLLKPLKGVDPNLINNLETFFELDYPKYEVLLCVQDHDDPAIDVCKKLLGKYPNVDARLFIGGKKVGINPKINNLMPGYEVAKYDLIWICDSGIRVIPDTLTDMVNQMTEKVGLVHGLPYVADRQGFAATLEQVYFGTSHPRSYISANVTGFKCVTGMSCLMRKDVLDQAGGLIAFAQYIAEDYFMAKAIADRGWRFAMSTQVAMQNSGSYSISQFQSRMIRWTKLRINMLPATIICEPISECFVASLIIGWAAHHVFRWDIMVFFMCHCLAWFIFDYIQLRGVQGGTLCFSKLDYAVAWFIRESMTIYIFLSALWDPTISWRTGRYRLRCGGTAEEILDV
Experiment: Assay 1: GCS Enzymatic Assay (MDCK cell lysate, C6-NBD-Ceramide, LC/MS)
Type: biochemical, canine
Conditions: Table 1, MDCK cell lysate; for % inhibition generated from Assay 1: values marked *; for IC50: read-out: IC50 (nM) generated from Assay 1
Summary of the method: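 LC/MS/MS measurement of glucosylceramide and NBD-ceramide after a 1 h, 37 °C reaction with 100 μM UDP-glucose and 10 μM C6-NBD-ceramide gave IC50s or percent inhibition.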

SMILES | IC50 | % inhibition generated from Assay 1
O=C(N[C@H](CN1CC2(CCC2)C1)[C@H](O)c1ccc2c(c1)OCCO2)C(F)(F)c1cc2cc(Cl)ccc2o1 [Compound 48, 2-(5-chlorobenzofuran-2-yl)-N-((1R,2R)-1-(2,3-dihydrobenzo[b][1,4]dioxin-6-yl)-1-hydroxy-3-(2-azaspiro[3.3]heptan-2-yl)propan-2-yl)-2,2-difluoroacetamide] | – | B* (the compound had a % inhibition of greater than or equal to about 3% but less than about 50%)
Cn1ncc2cc([C@@H](O)[C@@H](CN3CCCC3)NC(=O)C(F)(F)c3cc4cc(Cl)ccc4o3)ccc21 [Compound 49, 2-(5-chlorobenzofuran-2-yl)-2,2-difluoro-N-((1R,2R)-1-hydroxy-1-(1-methyl-1H-indazol-5-yl)-3-(pyrrolidin-1-yl)propan-2-yl)acetamide] | 50 to 5000 nM | –
O=C(N[C@H](CN1CCCC1)[C@H](O)c1ccc2c(c1)OCCO2)C(F)(F)C1Cc2ccc(-c3ccccn3)cc2C1 (stereo partly drawn) [Compound 50, N-((1R,2R)-1-(2,3-dihydrobenzo[b][1,4]dioxin-6-yl)-1-hydroxy-3-(pyrrolidin-1-yl)propan-2-yl)-2,2-difluoro-2-(5-(pyridin-2-yl)-2,3-dihydro-1H-inden-2-yl)acetamide] | < 50 nM | –
O=C(N[C@H](CN1CC2CCC1C2)[C@H](O)c1ccc2c(c1)OCCO2)C(F)(F)c1cc2cc(Cl)ccc2o1 (stereo partly drawn) [Compound 51, N-((1R,2R)-3-(2-azabicyclo[2.2.1]heptan-2-yl)-1-(2,3-dihydrobenzo[b][1,4]dioxin-6-yl)-1-hydroxypropan-2-yl)-2-(5-chlorobenzofuran-2-yl)-2,2-difluoroacetamide] | < 50 nM | –
O=C(N[C@H](CN1CCCC1)[C@H](O)c1ccc(OC2CC2)c(Cl)c1)C(F)(F)CCc1ccc2ccccc2c1 [Compound 52, N-((1R,2R)-1-(3-chloro-4-cyclopropoxyphenyl)-1-hydroxy-3-(pyrrolidin-1-yl)propan-2-yl)-2,2-difluoro-4-(naphthalen-2-yl)butanamide] | < 50 nM | –
O=C(N[C@H](CN1C2CCC1CC2)[C@H](O)c1ccc2c(c1)OCCO2)C(F)(F)c1cc2cc(Cl)ccc2o1 [Compound 53, N-((1R,2R)-3-(7-azabicyclo[2.2.1]heptan-7-yl)-1-(2,3-dihydrobenzo[b][1,4]dioxin-6-yl)-1-hydroxypropan-2-yl)-2-(5-chlorobenzofuran-2-yl)-2,2-difluoroacetamide] | < 50 nM | –
Cn1ncc2ccc([C@@H](O)[C@@H](CN3CCCC3)NC(=O)C(F)(F)c3cc4cc(Cl)ccc4o3)cc21 [Compound 54, 2-(5-chlorobenzofuran-2-yl)-2,2-difluoro-N-((1R,2R)-1-hydroxy-1-(1-methyl-1H-indazol-6-yl)-3-(pyrrolidin-1-yl)propan-2-yl)acetamide] | – | B* (the compound had a % inhibition of greater than or equal to about 3% but less than about 50%)
Cn1ncc2ccc([C@H](O)[C@@H](CN3CCCC3)NC(=O)C(F)(F)c3cc4cc(Cl)ccc4o3)cc21 [Compound 54G, 2-(5-chlorobenzofuran-2-yl)-2,2-difluoro-N-((1S,2R)-1-hydroxy-1-(1-methyl-1H-indazol-6-yl)-3-(pyrrolidin-1-yl)propan-2-yl)acetamide] | – | B* (the compound had a % inhibition of greater than or equal to about 3% but less than about 50%)
COc1ccc([C@@H](O)[C@@H](CN2CCCC2)NC(=O)C(F)(F)c2cc3cc(Cl)ccc3o2)cn1 [Compound 56, 2-(5-chlorobenzofuran-2-yl)-2,2-difluoro-N-((1R,2R)-1-hydroxy-1-(6-methoxypyridin-3-yl)-3-(pyrrolidin-1-yl)propan-2-yl)acetamide] | < 50 nM | –
[2H][C@@](O)(c1ccc2c(c1)OCCO2)[C@@H](CN1CCCC1)NC(=O)C(F)(F)c1cc2cc(Cl)ccc2o1 [Compound 57, 2-(5-chlorobenzofuran-2-yl)-N-((1R,2R)-1-(2,3-dihydrobenzo[b][1,4]dioxin-6-yl)-1-deutero-1-hydroxy-3-(pyrrolidin-1-yl)propan-2-yl)-2,2-difluoroacetamide] | < 50 nM | –
[2H][C@](O)(c1ccc2c(c1)OCCO2)[C@@H](CN1CCCC1)NC(=O)C(F)(F)c1cc2cc(Cl)ccc2o1 [Compound 57C, 2-(5-chlorobenzofuran-2-yl)-N-((1S,2R)-1-(2,3-dihydrobenzo[b][1,4]dioxin-6-yl)-1-deutero-1-hydroxy-3-(pyrrolidin-1-yl)propan-2-yl)-2,2-difluoroacetamide] | – | B* (the compound had a % inhibition of greater than or equal to about 3% but less than about 50%)
COc1ccc([C@H](O)[C@@H](CN2CCCC2)NC(=O)C(F)(F)c2cc3cc(Cl)ccc3o2)cc1C(F)F [Compound 59I, 2-(5-chlorobenzofuran-2-yl)-N-((1S,2R)-1-(3-(difluoromethyl)-4-methoxyphenyl)-1-hydroxy-3-(pyrrolidin-1-yl)propan-2-yl)-2,2-difluoroacetamide] | – | B* (the compound had a % inhibition of greater than or equal to about 3% but less than about 50%)
O=C(N[C@H](CN1CCCC1)[C@H](O)c1cc2c(cc1Br)OCCO2)C(F)(F)c1cc2cc(Cl)ccc2o1 [Compound 61, N-((1R,2R)-1-(7-bromo-2,3-dihydrobenzo[b][1,4]dioxin-6-yl)-1-hydroxy-3-(pyrrolidin-1-yl)propan-2-yl)-2-(5-chlorobenzofuran-2-yl)-2,2-difluoroacetamide] | – | B* (the compound had a % inhibition of greater than or equal to about 3% but less than about 50%)
CC1(C)CN(C[C@@H](NC(=O)C(F)(F)c2cc3cc(Cl)ccc3o2)[C@H](O)c2ccc3c(c2)OCCO3)C1 [Compound 62, 2-(5-chlorobenzofuran-2-yl)-N-((1R,2R)-1-(2,3-dihydrobenzo[b][1,4]dioxin-6-yl)-3-(3,3-dimethylazetidin-1-yl)-1-hydroxypropan-2-yl)-2,2-difluoroacetamide] | – | B* (the compound had a % inhibition of greater than or equal to about 3% but less than about 50%)
O=C(N[C@H](CN1CCCC1)[C@H](O)c1cc2cc(Cl)ccc2o1)C(F)(F)c1cc2cc(Cl)ccc2o1 [Compound 68, 2-(5-chlorobenzofuran-2-yl)-N-((1S,2R)-1-(5-chlorobenzofuran-2-yl)-1-hydroxy-3-(pyrrolidin-1-yl)propan-2-yl)-2,2-difluoroacetamide] | – | B* (the compound had a % inhibition of greater than or equal to about 3% but less than about 50%)

More lines, main results first:

IC50 | SMILES | % inhibition generated from Assay 1
< 50 nM | O=C(N[C@H](CN1CCCC1)C(O)c1ccc2c(c1)OCCO2)C(F)(F)c1cc2cc(Cl)ccc2o1 (stereo partly drawn) [Compound 57B, N-[2-(2H,3H-benzo[e]1,4-dioxan-6-yl)(1R)-2-hydroxy-1-(pyrrolidinylmethyl)ethyl]-2-(5-chlorobenzo[d]furan-2-yl)-2,2-difluoroacetamide] | –
50 to 5000 nM | COc1ccc([C@@H](O)[C@@H](CN2CCCC2)NC(=O)C(F)(F)c2cc3cc(Cl)ccc3o2)cc1C(F)F [Compound 59, 2-(5-chlorobenzofuran-2-yl)-N-((1R,2R)-1-(3-(difluoromethyl)-4-methoxyphenyl)-1-hydroxy-3-(pyrrolidin-1-yl)propan-2-yl)-2,2-difluoroacetamide] | –
< 50 nM | [2H]C([2H])(C(=O)N[C@H](CN1CCCC1)[C@H](O)c1ccc2c(c1)OCCO2)c1cc2cc(Cl)ccc2o1 [Compound 60, 2-(5-chlorobenzofuran-2-yl)-N-((1R,2R)-1-(2,3-dihydrobenzo[b][1,4]dioxin-6-yl)-1-hydroxy-3-(pyrrolidin-1-yl)propan-2-yl)-2,2-dideutero-acetamide] | –
< 50 nM | O=C(N[C@H](CN1CCCC1)[C@H](O)c1ccc2c(c1)OCCO2)C(F)(F)C1Cc2ccc(Cl)cc2C1 (stereo partly drawn) [Compound 63, 2-(5-chloro-2,3-dihydro-1H-inden-2-yl)-N-((1R,2R)-1-(2,3-dihydrobenzo[b][1,4]dioxin-6-yl)-1-hydroxy-3-(pyrrolidin-1-yl)propan-2-yl)-2,2-difluoroacetamide] | –
< 50 nM | O=C(N[C@H](CN1CCCC1)[C@H](O)c1cc(F)c2c(c1)OCCO2)C(F)(F)c1cc2cc(Cl)ccc2o1 [Compound 64, 2-(5-chlorobenzofuran-2-yl)-2,2-difluoro-N-((1R,2R)-1-(8-fluoro-2,3-dihydrobenzo[b][1,4]dioxin-6-yl)-1-hydroxy-3-(pyrrolidin-1-yl)propan-2-yl)acetamide] | –
< 50 nM | O=C(N[C@H](CN1CCCC1)[C@H](O)c1cc(Cl)c2c(c1)OCCO2)C(F)(F)c1cc2cc(Cl)ccc2o1 [Compound 65, N-((1R,2R)-1-(8-chloro-2,3-dihydrobenzo[b][1,4]dioxin-6-yl)-1-hydroxy-3-(pyrrolidin-1-yl)propan-2-yl)-2-(5-chlorobenzofuran-2-yl)-2,2-difluoroacetamide] | –
< 50 nM | CC1CN(C[C@@H](NC(=O)C(F)(F)c2cc3cc(Cl)ccc3o2)[C@H](O)c2ccc3c(c2)OCCO3)C1 [Compound 66, 2-(5-chlorobenzofuran-2-yl)-N-((1R,2R)-1-(2,3-dihydrobenzo[b][1,4]dioxin-6-yl)-1-hydroxy-3-(3-methylazetidin-1-yl)propan-2-yl)-2,2-difluoroacetamide] | –
< 50 nM | O=C(N[C@H](CN1CCCC1)[C@H](O)c1ccc(OC2CC2)c(Cl)c1)C(F)(F)C1Cc2ccc(Cl)cc2C1 (stereo partly drawn) [Compound 67, 2-(5-chloro-2,3-dihydro-1H-inden-2-yl)-N-((1R,2R)-1-(3-chloro-4-cyclopropoxyphenyl)-1-hydroxy-3-(pyrrolidin-1-yl)propan-2-yl)-2,2-difluoroacetamide] | –
